Experimental data reported in patent US20080213817A1, “Enhancement of Th2-Dependent and Inflammatory Response” (priority 2004, published 2008).

Experiments:
Type in all cases: cell-based, mice
Itch = experiment: Immunoblotting of Itch level in activated thymocytes; settings: activated WT thymocytes
Procedure: JNK1 was immunoprecipitated from 30 μg cell lysate with anti-JNK1 antibody (333, PharMingen) and its kinase activity measured by an immunecomplex kinase assay with GST-c-Jun(1-79) as a substrate (Xia et al. (2000) Proc Natl Acad Sci USA 97, 5243-5248). c-Jun phosphorylation was quantitated using a PhosphoImager (Bio-Rad) and gel loading was normalized by immunoblotting with a monoclonal antibody against JNK1/2 (666, PharMingen). ERK activation was examined by immunoblotting of gel separated whole cell extracts (100 μg) with an antibody specific for phospho-ERK (Cell Signaling). Polyclonal antibody against MEKK1 was prepared as described (Gallagher et al. (2002) J Biol Chem 277, 45785-45792). Antibodies against c-Jun, JunB, GATA3, c-Maf, NFATc1, NFATc2, p16, and p65 (RelA) were all from Santa Cruz Biotechnology. […] The levels of various proteins were quantitated by BioRad Quantity One software.
(§1) The levels of Itch and actin were examined was measured by immunoblotting. […] Cells were chased with nonradioactive amino acids for the indicated times, at which they were lysed and Itch expression levels were determined by radioimmunoprecipitation. The levels of [^35S]-labeled Itch were quantitated using a PhosphoImager. […] JNK activity was measured by an immunecomplex kinase assay. Phosphorylated c-Jun was detected by autoradiography and quantitated using a PhosphoImager. […]

WT thymocytes = experiment: Thymocyte proliferation, [3H] thymidine incorporation; settings: WT thymocytes
Procedure: For proliferation assays, purified thymocytes or CD4^+ or CD8^+ splenic T cells (2×10^5 cells/well) were cultured in round bottom 96-well plates (Costar) precoated with anti-CD3 antibody (BD Pharmingen) in the absence or presence of soluble anti-CD28 antibody (BD Pharmingen). After 3 days, cultures were pulsed for 6 hrs with 1 μCi [^3H] thymidine (New England Nuclear) per well and cells were harvested. [^3H] thymidine incorporation was measured by scintillation counting. When indicated, either recombinant IL-4 or neutralizing anti-IL-4 antibody (R&D Systems) were added prior to [^3H] thymidine labeling.
For proliferation assays, purified thymocytes (2×10^5 cells/well) were cultured in round bottom 96-well plates (Costar) precoated with anti-CD3 antibody (BD Pharmingen) in the absence or presence of soluble anti-CD28 antibody (BD Pharmingen). […] [^3H] thymidine incorporation was measured by scintillation counting. […]
The effect of the Mekk1^KD mutation on activation of JNK and other MAPKs in response to TCR and CD28 engagement was investigated. • A. WT and Mekk1^KD thymocytes were incubated with anti-CD3 (10 μg/ml) and anti-CD28 (1 μg/ml). At the indicated times, JNK activity was measured by an immunecomplex kinase assay using GST-c-Jun(1-79) as the substrate. Phosphorylated c-Jun was detected by autoradiography and quantitated using a PhosphorImager. […] Cell proliferation was measured as above. […]

c-Jun and JunB = experiment: Immunoblotting of Jun protein levels in activated T cells
Procedure: JNK1 was immunoprecipitated from 30 μg cell lysate with anti-JNK1 antibody (333, PharMingen) and its kinase activity measured by an immunecomplex kinase assay with GST-c-Jun(1-79) as a substrate (Xia et al. (2000) Proc Natl Acad Sci USA 97, 5243-5248). c-Jun phosphorylation was quantitated using a PhosphoImager (Bio-Rad) and gel loading was normalized by immunoblotting with a monoclonal antibody against JNK1/2 (666, PharMingen). ERK activation was examined by immunoblotting of gel separated whole cell extracts (100 μg) with an antibody specific for phospho-ERK (Cell Signaling). Polyclonal antibody against MEKK1 was prepared as described (Gallagher et al. (2002) J Biol Chem 277, 45785-45792). Antibodies against c-Jun, JunB, GATA3, c-Maf, NFATc1, NFATc2, p16, and p65 (RelA) were all from Santa Cruz Biotechnology. Polyclonal antibody against Itch was prepared as described (Qiu et al. (2000) J Biol Chem 275, 35734-35737). The levels of various proteins were quantitated by BioRad Quantity One software.
as §1
Inactivation of MEKK1 or JNK Slows Down JunB and c-Jun Turnover • A. Thymocytes and CD4^+ T cells from WT and Mekk1^ΔKD were stimulated with anti-CD3+anti-CD28 for 24 hrs. Cell extracts were prepared and the levels of various transcription factors were measured by immunoblotting. The relative levels of the different proteins determined by densitometry are indicated. […] The mRNA levels of Jun family members and c-Fos were measured by RNase protection. […] Cell lysates were prepared and immunoprecipitated with various antibodies as indicated, separated by SDS-PAGE and analyzed by autoradiography. […]

Compound | decrease in Itch expression (Itch; 24 hrs, 0.5 μM) [fold] | increase in [3H] thymidine incorporation (WT thymocytes; different concentrations of anti-CD3+anti-CD28, increasing amounts of inhibitor, 72 hrs) | increase in c-Jun and JunB expression (c-Jun and JunB; activated WT thymocytes (anti-CD3+anti-CD28), 24 hrs, SP600125 0.5 μM, JNKI-1 25 μM) [fold] | effect on Itch expression (in words) (Itch) | effect on [3H] thymidine incorporation (in words) (WT thymocytes; anti-CD3+anti-CD28) | c-Jun and JunB expression (in words) (c-Jun and JunB; WT CD4^+ T cells stimulated with anti-CD3 and anti-CD28, 24 hours) | effect on c-Jun and JunB expression (in words) (c-Jun and JunB; activated WT thymocytes)
Oc1c2ccccc2c2c3c(cccc13)N=N2 [SP600125] | 2 | at least 2 fold | 4 | – | – | – | –
Oc1ccc(-c2nc(-c3ccncc3)c(-c3ccc(F)cc3)[nH]2)cc1 [SB202190] | – | – | – | Negligible such effects | did not produce such an effect | No such effects | Negligible such effects
